Patent US10052304B2, “Compositions and methods for cancer therapy” (UNIVERSITY OF IOWA RESEARCH FOUNDATION, priority 2015, dated 2018)
“And” between values parts separate entries of the source, which are not always exact repeats. Equal entries are not always repeated.

Assays:
ARP1 myeloma cells [1] = test: ARP1 myeloma tumor-bearing model, IP injection, NOD-SCID mice; format: in vivo; details: ascorbate 4 g/kg approximately 15 days, n=3
Method: This experiment was repeated in a tumor-bearing mouse model through IP injection of ARP1 myeloma cells, which allows a solid tumor growth when implanted in mice purpose. A total of […] ARP1 MM cells (in 50 μl PBS) per mouse were injected into NOD-SCID mice through IP.

[2] = test system: stage IV pancreas cancer patients; details: cited from earlier work
GBM subjects = test: Phase I clinical trial of pharmacological ascorbate with radiation and temozolomide in GBM
Method: The study was broken into two phases: radiation phase and adjuvant phase. Radiation phase was defined as the time period from day 1 of radiation through adjuvant cycle 1, day 1.
Adjuvant phase was defined as the time period from cycle 1 day 1 through cycle 6 day 28. […] Prescribed doses utilized the same cohorts as the radiation phase. Subjects were dose-escalated after 2 infusions until a plasma level of 20 mM was achieved. […] Temozolomide was prescribed consistent with the Stupp regimen: 150 mg m^−2 for days 1 through 5 of a 28 day cycle. A one-time dose escalation was allowed to 200 mg/m^2 if cycle 1 was tolerated (FIG. 18A).
All subjects agreed to, and participate in, lifelong follow-up for this study. Subject numbers are for convenience and not representative of case ID numbers.
The study was broken into two phases: radiation phase and adjuvant phase. Radiation phase was defined as the time period from day 1 of radiation through adjuvant cycle 1, day 1. […] Cohorts were defined as 15 g, 25 g, 50 g, 62.5 g, 75 g, 87.5 g, 100 g, and 125 g. […] Adjuvant phase was defined as the time period from cycle 1 day 1 through cycle 6 day 28. […] Prescribed doses utilized the same cohorts as the radiation phase. Subjects were dose-escalated after 2 infusions until a plasma level of 20 mM was achieved. […] Temozolomide was prescribed consistent with the Stupp regimen: 150 mg m-2 for days 1 through 5 of a 28 day cycle. A one-time dose escalation was allowed to 200 mg/m2 if cycle 1 was tolerated (FIG. 18A). […] Dose limiting toxicities (DLTs) for the study included grade 4 infection, grade 3 nausea or vomiting despite maximum supportive care, grade 4 neutropenia or thrombocytopenia, and serious adverse events (SAE) with causality to the investigational agent. In addition to DLT, criteria for removal included progressive disease, patient's refusal to continue treatment, and extraordinary medical circumstances (e.g., the constraints of the protocol are considered detrimental to patient health). All subjects agreed to, and participate in, lifelong follow-up for this study. Subject numbers are for convenience and not representative of case ID numbers.

ARP1 myeloma cells [3] = test: Luciferase-labeled ARP1 myeloma xenograft, intravenous injection, NOD-SCID mice; format: in vivo; details: ascorbate 4 g/kg daily
Description: The first model used is a luciferase labeled human myeloma cell line ARP1.

[4] = ascorbate + radiation + temozolomide
[5] = ascorbate + radiation + temozolomide, 11 subjects

O=C1O[C@H]([C@@H](O)CO)C(O)=C1O [ascorbate, L-ascorbic acid]
final tumor volume (ARP1 myeloma cells [1]): 50±30 mm3 | side effects attributed to the combination ([2]; ascorbate + gemcitabine): rare and included diarrhea and dry mouth | average survival ([2]; pharmacological ascorbate + gemcitabine, stage IV pancreas cancer): 14 months | desired therapeutic blood level (≥20 mM target plasma concentration) reached (GBM subjects; 87.5 g infusions): achieved in all subjects | safety and tolerability (GBM subjects; all 13 subjects, 15-125 g/infusion IV): safe and well tolerated | patients that completed the radiation phase still living (GBM subjects; as of 7/28/15): 10 of 11 | OS range (GBM subjects; [4]): 7.3-29.3 m and 7.3-31.1 m | PFS range (GBM subjects; [4]): 3.4-29.3 m and 3.4-31.1 m | estimated median overall survival (Kaplan-Meier) (GBM subjects; [4]): 28.4 months | mean progression free survival as of 7/28/15 (GBM subjects; [4]): 14 months | median OS (GBM subjects; [4]): 15.5 m | median PFS (GBM subjects; [4]): 9.4 m | average overall survival (OS) (GBM subjects; [5]): 18.2 months | average progression free survival (PFS) (GBM subjects; [5]): 11.9 months | current median overall survival (OS) (GBM subjects; [5]): 16.5 months | median progression free survival (PFS) (GBM subjects; [5]): 9.4 months | adverse events attributed to pharmacological ascorbate (GBM subjects; in combination with radiation and temozolomide): no adverse events attributed to pharmacological ascorbate | subjects remaining alive (GBM subjects; of 11 subjects in longevity analysis): 7 | tumor growth rate (ARP1 myeloma cells [3]): significantly decreased tumor growth rate | decrease of mean tumor fluorescent intensity vs control (ARP1 myeloma cells [3]; approximately 15 days): 59%
